Inhibition data for 1 molecule are collected here from patent US11572590B2, “Methods for evaluating tumor cell spheroids using 3D microfluidic cell culture device” (Dana-Farber Cancer Institute, Inc., priority 2017, dated 2023).

Assay in all cases: SelectScreen Kinase Profiling, single point inhibition and IC50 for off-target kinases
Holding throughout (type): biochemical

Assay [1] has as its target off-target kinases (Homo sapiens, UniProt Q5S007, I2020T). The settings on record: LRRK2 I2020T, ATP Km app, Adapta.
Assay [2] addresses T1, off-target kinases (Homo sapiens, UniProt Q9HBY8).
T1 sequence (Q9HBY8 1-367): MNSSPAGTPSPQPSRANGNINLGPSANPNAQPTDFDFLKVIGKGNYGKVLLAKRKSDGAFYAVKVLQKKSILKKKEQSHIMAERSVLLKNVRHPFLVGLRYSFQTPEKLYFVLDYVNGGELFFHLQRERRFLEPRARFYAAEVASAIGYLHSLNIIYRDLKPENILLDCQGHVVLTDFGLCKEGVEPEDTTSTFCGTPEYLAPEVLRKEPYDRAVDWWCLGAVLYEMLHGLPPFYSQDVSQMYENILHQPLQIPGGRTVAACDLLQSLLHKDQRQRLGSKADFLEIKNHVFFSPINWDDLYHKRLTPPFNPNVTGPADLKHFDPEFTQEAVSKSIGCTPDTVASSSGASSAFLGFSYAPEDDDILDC
The settings on record: SGK2, ZLYTE, ATP Km app.

The target of assay [3] is T2, off-target kinases (Homo sapiens, UniProt P36897).
T2 sequence (P36897 34-503): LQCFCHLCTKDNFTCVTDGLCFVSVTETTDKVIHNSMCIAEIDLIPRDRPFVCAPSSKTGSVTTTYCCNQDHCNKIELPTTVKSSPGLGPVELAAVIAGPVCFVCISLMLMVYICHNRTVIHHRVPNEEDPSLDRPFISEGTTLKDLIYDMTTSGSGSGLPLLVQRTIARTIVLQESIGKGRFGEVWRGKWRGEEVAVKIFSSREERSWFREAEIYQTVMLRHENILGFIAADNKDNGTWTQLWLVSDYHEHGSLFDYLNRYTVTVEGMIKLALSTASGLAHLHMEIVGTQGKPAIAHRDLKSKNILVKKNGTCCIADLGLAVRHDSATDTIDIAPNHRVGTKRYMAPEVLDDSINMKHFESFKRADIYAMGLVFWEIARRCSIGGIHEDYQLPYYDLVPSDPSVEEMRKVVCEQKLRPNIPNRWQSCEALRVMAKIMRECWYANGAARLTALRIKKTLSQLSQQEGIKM
The note with it: TGFBR1 (ALK5), LanthaScreen Binding.

Where two headings read alike, the source gives them in different places.

Sequence of off-target kinases (Homo sapiens, UniProt Q5S007, I2020T) (Q5S007 whole entry I2020T): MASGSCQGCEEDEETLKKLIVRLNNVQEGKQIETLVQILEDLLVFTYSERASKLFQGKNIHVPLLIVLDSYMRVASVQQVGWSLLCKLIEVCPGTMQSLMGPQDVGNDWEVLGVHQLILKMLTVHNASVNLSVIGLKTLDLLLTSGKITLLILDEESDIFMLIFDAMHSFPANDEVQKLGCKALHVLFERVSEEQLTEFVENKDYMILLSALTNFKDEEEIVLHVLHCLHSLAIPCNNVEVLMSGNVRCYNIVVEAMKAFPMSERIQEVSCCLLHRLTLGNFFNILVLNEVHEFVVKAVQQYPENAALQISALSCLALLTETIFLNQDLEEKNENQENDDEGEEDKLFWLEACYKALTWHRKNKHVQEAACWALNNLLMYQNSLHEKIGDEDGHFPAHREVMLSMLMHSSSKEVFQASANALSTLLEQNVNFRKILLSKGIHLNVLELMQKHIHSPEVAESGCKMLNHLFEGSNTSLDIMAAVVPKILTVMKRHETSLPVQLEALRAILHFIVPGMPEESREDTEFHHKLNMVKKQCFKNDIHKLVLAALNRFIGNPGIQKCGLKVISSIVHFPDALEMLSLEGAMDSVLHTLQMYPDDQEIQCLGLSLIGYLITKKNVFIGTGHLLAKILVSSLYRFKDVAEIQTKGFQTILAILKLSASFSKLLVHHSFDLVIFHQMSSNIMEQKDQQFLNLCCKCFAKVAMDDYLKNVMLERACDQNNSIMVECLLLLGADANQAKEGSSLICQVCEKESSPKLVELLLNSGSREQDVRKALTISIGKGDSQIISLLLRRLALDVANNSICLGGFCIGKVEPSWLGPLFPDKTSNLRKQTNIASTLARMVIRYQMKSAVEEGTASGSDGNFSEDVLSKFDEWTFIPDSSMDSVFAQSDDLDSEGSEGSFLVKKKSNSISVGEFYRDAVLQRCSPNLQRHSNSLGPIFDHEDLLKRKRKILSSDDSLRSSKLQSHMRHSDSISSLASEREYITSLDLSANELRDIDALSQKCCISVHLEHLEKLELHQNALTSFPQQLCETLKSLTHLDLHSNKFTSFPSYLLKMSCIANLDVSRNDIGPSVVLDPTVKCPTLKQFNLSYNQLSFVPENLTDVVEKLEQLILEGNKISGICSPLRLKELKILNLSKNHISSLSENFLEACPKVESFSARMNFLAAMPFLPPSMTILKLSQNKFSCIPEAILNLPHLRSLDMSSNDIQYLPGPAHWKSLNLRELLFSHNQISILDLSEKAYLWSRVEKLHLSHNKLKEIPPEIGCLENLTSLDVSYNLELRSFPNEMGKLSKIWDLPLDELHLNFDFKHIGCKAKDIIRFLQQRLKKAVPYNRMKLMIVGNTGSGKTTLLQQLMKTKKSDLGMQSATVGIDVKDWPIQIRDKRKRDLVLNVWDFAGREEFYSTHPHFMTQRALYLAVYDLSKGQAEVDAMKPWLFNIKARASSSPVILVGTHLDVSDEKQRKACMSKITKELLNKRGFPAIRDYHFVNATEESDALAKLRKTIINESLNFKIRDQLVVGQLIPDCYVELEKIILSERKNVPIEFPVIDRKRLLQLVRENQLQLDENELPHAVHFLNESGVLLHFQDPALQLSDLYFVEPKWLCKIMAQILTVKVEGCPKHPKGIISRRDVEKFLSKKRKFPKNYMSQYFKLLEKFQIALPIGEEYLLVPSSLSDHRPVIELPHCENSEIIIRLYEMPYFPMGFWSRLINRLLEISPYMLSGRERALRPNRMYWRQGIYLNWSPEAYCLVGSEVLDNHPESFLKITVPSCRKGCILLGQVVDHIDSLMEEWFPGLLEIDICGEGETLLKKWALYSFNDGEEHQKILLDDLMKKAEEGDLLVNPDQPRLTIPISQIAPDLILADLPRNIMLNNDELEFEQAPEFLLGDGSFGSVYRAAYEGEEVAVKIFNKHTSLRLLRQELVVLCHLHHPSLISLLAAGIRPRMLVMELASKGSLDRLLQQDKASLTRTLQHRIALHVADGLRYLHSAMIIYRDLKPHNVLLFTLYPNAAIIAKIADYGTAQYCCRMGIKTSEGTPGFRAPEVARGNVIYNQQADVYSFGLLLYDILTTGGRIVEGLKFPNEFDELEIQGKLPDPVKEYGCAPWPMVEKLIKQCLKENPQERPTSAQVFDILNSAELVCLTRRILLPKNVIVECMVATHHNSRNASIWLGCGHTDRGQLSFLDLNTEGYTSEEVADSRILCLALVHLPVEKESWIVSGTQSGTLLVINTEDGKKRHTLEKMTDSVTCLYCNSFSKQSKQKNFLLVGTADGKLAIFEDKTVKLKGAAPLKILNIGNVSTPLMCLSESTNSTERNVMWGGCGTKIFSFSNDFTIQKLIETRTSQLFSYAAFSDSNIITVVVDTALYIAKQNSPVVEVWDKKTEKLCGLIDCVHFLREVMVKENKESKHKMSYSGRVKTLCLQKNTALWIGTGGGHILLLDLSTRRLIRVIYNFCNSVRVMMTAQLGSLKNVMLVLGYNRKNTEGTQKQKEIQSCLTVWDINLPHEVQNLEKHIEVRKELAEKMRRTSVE

As to `N#Cc1cc(-c2ncnc(Nc3ccc(N4CCN(C5COC5)CC4)cc3)n2)ccc1OC1CCOCC1` [Compound 1, 5-(4-((4-(4-(oxetan-3-yl)piperazin-1-yl)phenyl)amino)-1,3,5-triazin-2-yl)-2-((tetrahydro-2H-pyran-4-yl)oxy)benzonitrile], the inhibition (as a rule, the change of the read-out against control, counted positive when it falls) on off-target kinases [1] (read-out: % Inhibition 1) turned out to be 100%; at off-target kinases [1] (read-out: % Inhibition 2), 98%; at off-target kinases [1] (read-out: % Inhibition Avg), 99%; at off-target kinases [2] (read-out: % Inhibition 1) it was 7%; at off-target kinases [2] (read-out: % Inhibition 2) it was 12%; at off-target kinases [2] (read-out: % Inhibition Avg), 10%. Besides, the figures for the inhibition on off-target kinases [3] (read-out: % Inhibition 1), on off-target kinases [3] (read-out: % Inhibition 2) and at off-target kinases [3] (read-out: % Inhibition Avg) were 56%, 58% and 57%, respectively.
